Measured values taken from patent EP1100453B1, “COSMETIC FORMULATION CONTAINING ECTOINE DERIVATIVES, ENZYMES, VITAMINS AND/OR VITAMIN DERIVATIVES” (MERCK PATENT GmbH, priority 1998, dated 2000).
Read-outs that look alike come from different tables or passages of the source.

Columns and labels:
Format in all cases: biochemical
Katalase = target: T1, Katalase (Homo sapiens, UniProt P04040); test: Enzyme stabilisation by Ectoin against temperature stress in vitro: catalase activity; conditions: for activation at 1 M: 0.5 h, read-out: Aktivität
T1 sequence (P04040 1-527): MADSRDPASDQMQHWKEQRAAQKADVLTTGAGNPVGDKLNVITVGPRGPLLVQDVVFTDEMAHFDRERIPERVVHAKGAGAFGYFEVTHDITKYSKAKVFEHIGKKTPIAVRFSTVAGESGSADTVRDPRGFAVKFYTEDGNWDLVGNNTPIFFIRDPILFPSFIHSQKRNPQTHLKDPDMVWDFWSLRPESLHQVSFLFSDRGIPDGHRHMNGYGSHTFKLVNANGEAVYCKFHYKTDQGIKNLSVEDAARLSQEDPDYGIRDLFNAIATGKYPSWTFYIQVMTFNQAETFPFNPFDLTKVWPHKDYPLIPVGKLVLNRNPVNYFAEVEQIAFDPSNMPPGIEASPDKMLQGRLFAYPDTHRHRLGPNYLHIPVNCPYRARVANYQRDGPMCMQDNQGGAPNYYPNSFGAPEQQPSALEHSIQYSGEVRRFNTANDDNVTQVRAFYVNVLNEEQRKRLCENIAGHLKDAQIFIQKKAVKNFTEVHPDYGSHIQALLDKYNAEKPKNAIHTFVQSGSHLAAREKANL
From the text: (§1) Das Grundmedium für die Inkubation ist eine 0,25 molare Tris-HCl-Pufferlösung mit einem pH-Wert von 6,8.
(§2) Die Bestimmung der Enzymaktivität erfolgt • für Katalase nach der Methode von A. Claiborne [A. Claiborne 'Catalase Activity' in: R.A. Greenwald (Ed.), Handbook of Methods for Oxygen Radical Research, CRC Press, Boca Raton, FL. (1986) 283-284], • für Glutathionperoxidase nach der Methode von L. Flohé und W.A. Günzler [L. Flohé et al., Methods Enzymol. 105 (1989) 114-121], • für Superoxiddismutase nach der Methode von H.P. Nissen und H.W. Kreysel [H.W. Kreysel et al., 'Superoxide Dismutase in Human Semen, Klin. Wochenschr. 61 (1983) 63-65] und • für Elastase nach der Methode von L. Hornebeck und W. Hornebeck [W. Hornebeck et al., 'Characterisation of Human Skin Fibroblasts Elastase Activity', J. Invest. Dermatol. 91 (5) (1988) 472-477].
(§3) Die Ergebnisse sind für Katalase in Abb. 1, für Glutathionperoxidase in Abb. 2, für Superoxiddimutase in Abb. 3 und für Elastase in Abb. 4 dargestellt.

Superoxiddismutase = test: Enzyme stabilisation by Ectoin against temperature stress in vitro: superoxide dismutase activity; conditions: 30 min incubation, Ectoin 1 mol/l, enzyme 0,05 mg/ml, Tris-HCl pH 6,8, difference to enzyme without Ectoin (set to 100 %)
From the text: as §1, §2, §3

Glutathionperoxidase = test: Enzyme stabilisation by Ectoin against temperature stress in vitro: glutathione peroxidase activity; conditions: 30 min incubation, Ectoin 1 mol/l, enzyme 0,05 mg/ml, Tris-HCl pH 6,8, difference to enzyme without Ectoin (set to 100 %)
From the text: as §1, §2, §3

Elastase = test: Enzyme stabilisation by Ectoin against temperature stress in vitro: elastase activity; conditions: 30 min incubation, Ectoin 1 mol/l, enzyme 0,05 mg/ml, Tris-HCl pH 6,8, difference to enzyme without Ectoin (set to 100 %)
From the text: as §1, §2, §3

- Aktivität von mit Ectoin behandelter Katalase relativ zu nicht mit Ectoin behandelter Katalase (Katalase; 50 °C incubation, ratio of activity with Ectoin to activity without Ectoin): mehr als doppelt so aktiv
- Aktivität (Katalase; 50 °C, 30 min incubation, Ectoin 1 mol/l, enzyme 0,05 mg/ml, Tris-HCl pH 6,8, difference to enzyme without Ectoin (set to 100 %)): 117,9%
- activation at 1 M (Katalase; pH 6, 20 °C, 30 min incubation, Ectoin 1 mol/l, enzyme 0,05 mg/ml, Tris-HCl pH 6,8, difference to enzyme without Ectoin (set to 100 %)): 2.5%
- activation at 1 M (Katalase; pH 6, 30 °C, 30 min incubation, Ectoin 1 mol/l, enzyme 0,05 mg/ml, Tris-HCl pH 6,8, difference to enzyme without Ectoin (set to 100 %)): 10.4%
- activation at 1 M (Katalase; pH 6, 40 °C, 30 min incubation, Ectoin 1 mol/l, enzyme 0,05 mg/ml, Tris-HCl pH 6,8, difference to enzyme without Ectoin (set to 100 %)): ~25%
- activation at 1 M (Katalase; pH 6, 50 °C, 30 min incubation, Ectoin 1 mol/l, enzyme 0,05 mg/ml, Tris-HCl pH 6,8, difference to enzyme without Ectoin (set to 100 %)): ~120%
- Aktivität (Superoxiddismutase; 20 °C): 4,9%
- Aktivität (Superoxiddismutase; 40 °C): 14,4%
- Aktivität (Superoxiddismutase; 50 °C): 17,4%
- Aktivität (Glutathionperoxidase; 20 °C): 3,5%
- Aktivität (Glutathionperoxidase; 30 °C): 1,4%
- Aktivität (Glutathionperoxidase; 40 °C): 20,8%
- Aktivität (Glutathionperoxidase; 50 °C): 39,6%
- Aktivität (Elastase; 30 °C): 4,0%
- Aktivität (Elastase; 40 °C): 15,0%
- Aktivität (Elastase; 50 °C): 25,7%
Compound: CC1=N[C@H](C(=O)O)CCN1 [Ectoin, (S)-1,4,5,6-Tetrahydro-2-methyl-4-pyrimidincarbonsäure]
